≈ marks a conversion by molar mass, not a printed value.
Test: Solubility of free compound Ic-1 in different solvents
Format: physicochemical
Conditions: thermodynamic from solid, room temperature
Experimental: The free base of the compound of formula Ic-1 was used as the starting material to obtain other salt forms. The free base of the compound of formula Ic-1 was an oily substance, and the solubility of the free base of the compound of formula Ic-1 in 11 common solvents was tested at room temperature. In the experiment, about 2 mg of compound Ic-1 oily sample was weighed into a 3-ml vial, and then the corresponding solvent was gradually added (50, 50, 200, 700 μLL) and shaken until the solution was clear. If the sample was still not dissolved after adding the solvent to 1 ml, the solvent was not added any more. The rough solubility range calculated according to the mass of the solid sample, the volume of the added solvent and the observed dissolution phenomenon was shown in Table 8.

For CNCC[C@H](Oc1cccc2ccoc12)c1cccs1 [IC-1, (S)-3-(Benzofuran-7-yloxy)-N-methyl-3-(thiophen-2-yl)propan-1-amine], the solubility (aqueous with cosolvent or surfactant or cyclodextrin, Methanol:Water (1:1)) was > 38 mg/mL, the solubility (organic solvent or mixture, Acetone) was > 46 mg/mL and the solubility (organic solvent or mixture, Acetonitrile) was > 54 mg/mL. For the same compound, the solubility (organic solvent or mixture, Dimethyl sulfoxide) was > 38 mg/mL, the solubility (organic solvent or mixture, Ethanol) was > 42 mg/mL and the solubility (organic solvent or mixture, Ethyl acetate) was > 36 mg/mL. For the same compound, the solubility (organic solvent or mixture, Methanol) was > 38 mg/mL, the solubility (organic solvent or mixture, Methyl isobutyl ketone) was > 42 mg/mL and the solubility (organic solvent or mixture, Tetrahydrofuran) was > 40 mg/mL. For the same compound, the solubility (organic solvent or mixture, n-Heptane) was 7.6 to 23 mg/mL (≈ 26.4 to 80 mM) and the solubility (Water) was < 2 mg/mL.

— patent US12492195B2, “Preparation method for and crystal form of 3-aryloxy-3-five-membered heteroaryl-propylamine compound” (Zhangzhou Pien Tze Huang Pharmaceutical Co., Ltd., priority 2020, dated 2025)
